The experiment concerns endogenous target monocytes in human PBMC. The experiment in a line: PBMC ex vivo monocyte depletion flow cytometry assay (Example 200). To be noted: with anti-cotinine antibody (SEQ ID NO: 11/12), 18-24 hours, EC50 in molar, read-out: Ex Vivo Depletion Assay pEC50 (converted). It is filed as cell-based. As for the experimental part:
A human PBMC (peripheral blood mononuclear cells) monocyte depletion flow cytometry assay was developed to screen compounds in a 384-well plate format. This assay incorporated endogenous natural killer cells to deplete endogenous target monocytes.
To screen compounds in the human PBMC monocyte depletion flow cytometry assay, 11-point dose-response curves were made from 1 mM stocks in neat DMSO by serially diluting an ARM compound of Formula (I) four-fold into a 384-well plate row-wise. These serially diluted compounds were then stamped into a flat bottom polypropylene 384-well plate (Greiner Bio-One) at 100 nL/well. Fifty microliters of 30 μg/mL anti-cotinine antibody having a heavy chain sequence of SEQ ID NO: 11 and a light chain sequence of SEQ ID NO: 12 (rabbit variable region with human IgG1 Fc domain containing a DE mutation (S239D/1332E)) that had been diluted in assay medium (RPMI 1640 (Gibco) containing 10% fetal bovine serum (Gibco), 1% Glutamax (Gibco) and 1% sodium pyruvate (Corning) was added to the wells of the plate. The plate was centrifuged for 1 min at 500 rpm (revolutions per minute) and then shaken for 5 min at room temperature. The plate was incubated for 15 minutes at 37° C./5% CO2.
Frozen PBMC cells (HemaCare BioResearch) were thawed and centrifuged at 1,200 rpm for 4 minutes. The cells were diluted to a cell density of 2×10^6 cells/mL in assay medium. Fifty microliters of the diluted cells were added to the wells of the plate. The plate was centrifuged for 1 min at 500 rpm and incubated for 18-24 hours at 37° C./5% CO2.
After 18-24 hours incubation, 2 μL of 6.25 μg human FC block (BD Pharmingen) that was diluted in assay medium was added to the wells of the plate. The plate was centrifuged for 1 minute at 500 rpm and then incubated at room temperature for 15 minutes. Five microliters of 750 nM Helix NP NIR (Biolegend) that had been diluted in assay medium was added to the wells of the plate. Nine microliters of antibody cocktail containing 1/5 diluted fluorescein isothiocyanate (FITC) labeled anti-CD45 antibody (Beckman Coulter), PC7 labeled anti-CD14 antibody (Beckman Coulter) and phyocoerythrin (PE) anti-CD4 antibody (Beckman Coulter) was then added to the wells of the plate. The plate was centrifuged for 1 min at 500 rpm and incubated for 30 minutes at 4-8° C. Samples from the plate were run on BD FACS Canto II flow cytometer and data was analyzed using FlowJo software.
ARMs compounds of Formula (I) of the invention were tested for the ability to deplete monocytes in the above assay in one or more experimental runs and the results are shown in Table 3 below. Potency of the compounds of the invention is reported as a pEC50 value. The pEC50 value is the negative log of the EC50 value, wherein the EC50 value is the half maximal effective concentration measured in molar (M). For compounds tested in more than one experimental run, the pEC50 value is reported as an average or as the individual values measured
A general note: In flow cytometry, cells or beads pass a laser one at a time.

The structures appear in SMILES notation. Counter-ions that a name gives are not always drawn.

Consider `CN1C(=O)C[C@H](C(=O)NCCOCCOCCC(=O)N[C@H]2CC[C@@H](C(=O)N[C@@H]3C[C@H](NC(C)(C)C)CC[C@@H]3N3CC[C@H](Nc4ncnc5ccc(C(F)(F)F)cc45)C3=O)CC2)[C@H]1c1cccnc1` [Example 120, (2S,3S)-N-(2-(2-(3-(((1S,4s)-4-(((1R,2S,5R)-5-(tert-Butylamino)-2-((S)-2-oxo-3-((6-(trifluoromethyl)quinazolin-4-yl)amino)pyrrolidin-1-yl)cyclohexyl)carbamoyl)cyclohexyl)amino)-3-oxopropoxy)ethoxy)ethyl)-1-methyl-5-oxo-2-(pyridin-3-yl)pyrrolidine-3-carboxamide], for which the EC50 was 1.26 nM.
The result for `CC(C)N(C)[C@@H]1CC[C@H](N2CC[C@H](Nc3ncnc4ccc(C(F)(F)F)cc34)C2=O)[C@H](NC(=O)c2cc(OCCOCCOCCOCCNC(=O)[C@H]3CC(=O)N(C)[C@@H]3c3cccnc3)ccn2)C1` [Example 89, N-((1R,2S,5R)-5-(Isopropyl(methyl)amino)-2-((S)-2-oxo-3-((6-(trifluoromethyl)quinazolin-4-yl)amino)pyrrolidin-1-yl)cyclohexyl)-4-((1-((2S,3S)-1-methyl-5-oxo-2-(pyridin-3-yl)pyrrolidin-3-yl)-1-oxo-5,8,11-trioxa-2-azatridecan-13-yl)oxy)picolinamide] reads 25.1 nM.
Consider `CC(C)N(C)[C@@H]1CC[C@H](N2CC[C@H](Nc3ncnc4ccc(C(F)(F)F)cc34)C2=O)[C@H](NC(=O)[C@H]2CC[C@H](NC(=O)CCO[C@H]3CC[C@@H](OCCNC(=O)[C@H]4CC(=O)N(C)[C@@H]4c4cccnc4)CC3)CC2)C1` [Example 114, (2S,3S)-N-(2-(((1S,4R)-4-(3-(((1R,4R)-4-(((1R,2S,5R)-5-(Isopropyl(methyl)amino)-2-((S)-2-oxo-3-((6-(trifluoromethyl)quinazolin-4-yl)amino)pyrrolidin-1-yl)cyclohexyl)carbamoyl)cyclohexyl)amino)-3-oxopropoxy)cyclohexyl)oxy)ethyl)-1-methyl-5-oxo-2-(pyridin-3-yl)pyrrolidine-3-carboxamide], for which the EC50 was 2.51 nM.
For the compound `CC(C)N(C)[C@@H]1CC[C@H](N2CC[C@H](Nc3ncnc4ccc(C(F)(F)F)cc34)C2=O)[C@H](NC(=O)c2ccnc(CCCOCCOCCOCCOCCNC(=O)[C@H]3CC(=O)N(C)[C@@H]3c3cccnc3)c2)C1` [Example 160, N-((1R,2S,5R)-5-(Isopropyl(methyl)amino)-2-((S)-2-oxo-3-((6-(trifluoromethyl)quinazolin-4-yl)amino)pyrrolidin-1-yl)cyclohexyl)-2-(1-((2S,3S)-1-methyl-5-oxo-2-(pyridin-3-yl)pyrrolidin-3-yl)-1-oxo-5,8,11,14-tetraoxa-2-azaheptadecan-17-yl)isonicotinamide, 3Formic acid salt], the EC50 is 31.6 nM.
For the compound `CC(C)N(C)[C@@H]1CC[C@H](N2CC[C@H](Nc3ncnc4ccc(C(F)(F)F)cc34)C2=O)[C@H](NC(=O)c2ccc(NCCOCCOCCOCCOCCNC(=O)[C@H]3CC(=O)N(C)[C@@H]3c3cccnc3)nc2)C1` [Example 128, N-((1R,2S,5R)-5-(Isopropyl(methyl)amino)-2-((S)-2-oxo-3-((6-(trifluoromethyl)quinazolin-4-yl)amino)pyrrolidin-1-yl)cyclohexyl)-6-((1-((2S,3S)-1-methyl-5-oxo-2-(pyridin-3-yl)pyrrolidin-3-yl)-1-oxo-5,8,11, 14-tetraoxa-2-azahexadecan-16-yl)amino) nicotinamide], the EC50 was 1.58 nM.
Regarding `CC(C)N(C)[C@@H]1CC[C@H](N2CC[C@H](Nc3ncnc4ccc(C(F)(F)F)cc34)C2=O)[C@H](NC(=O)C23CCC(NC(=O)CCOCCOCCOCCNC(=O)[C@H]4CC(=O)N(C)[C@@H]4c4cccnc4)(CC2)CC3)C1` [Example 25, (2S,3S)-N-(2-(2-(2-(3-((4-(((1R,2S,5R)-5-(Isopropyl(methyl)amino)-2-((S)-2-oxo-3-((6-(trifluoromethyl)quinazolin-4-yl)amino)pyrrolidin-1-yl)cyclohexyl)carbamoyl)bicyclo[2.2.2]octan-1-yl)amino)-3-oxopropoxy)ethoxy)ethoxy)ethyl)-1-methyl-5-oxo-2-(pyridin-3-yl)pyrrolidine-3-carboxamide], the EC50 is 2 nM.
Regarding `CC(C)N(C)[C@@H]1CC[C@H](N2CC[C@H](Nc3ncnc4ccc(C(F)(F)F)cc34)C2=O)[C@H](NC(=O)[C@H]2CC[C@@H](NC(=O)CCOCCOCCNC(=O)CCCNC(=O)[C@H]3CC(=O)N(C)[C@@H]3c3cccnc3)CC2)C1` [Example 176, (2S,3S)-N-(4-((2-(2-(3-(((1S,4s)-4-(((1R,2S,5R)-5-(Isopropyl(methyl)amino)-2-((S)-2-oxo-3-((6-(trifluoromethyl)quinazolin-4-yl)amino)pyrrolidin-1-yl)cyclohexyl)carbamoyl)cyclohexyl)amino)-3-oxopropoxy)ethoxy)ethyl)amino)-4-oxobutyl)-1-methyl-5-oxo-2-(pyridin-3-yl)pyrrolidine-3-carboxamide], the EC50 is 0.316 nM.
With `CC(C)N(C)[C@@H]1CC[C@H](N2CC[C@H](Nc3ncnc4ccc(C(F)(F)F)cc34)C2=O)[C@H](NC(=O)CCCCCCCCC(=O)NCCCCCCCCCCNC(=O)[C@H]2CC(=O)N(C)[C@@H]2c2cccnc2)C1` [Example 165, N^1-((1R,2S,5R)-5-(isopropyl(methyl)amino)-2-((S)-2-oxo-3-((6-(trifluoromethyl)quinazolin-4-yl)amino)pyrrolidin-1-yl)cyclohexyl)-N^10-(10-((2S,3S)-1-methyl-5-oxo-2-(pyridin-3-yl)pyrrolidine-3-carboxamido)decyl)decanediamide] the figure was 0.631 nM; with `CC(C)N(C)[C@@H]1CC[C@H](N2CC[C@H](Nc3ncnc4ccc(C(F)(F)F)cc34)C2=O)[C@H](NC(=O)[C@H]2CC[C@H](c3ccc(C(=O)NCCOCCOCCNC(=O)[C@H]4CC(=O)N(C)[C@@H]4c4cccnc4)cn3)CC2)C1` [Example 139, 6-((1R,4r)-4-(((1R,2S,5R)-5-(Isopropyl(methyl)amino)-2-((S)-2-oxo-3-((6-(trifluoromethyl)quinazolin-4-yl)amino)pyrrolidin-1-yl)cyclohexyl)carbamoyl)cyclohexyl)-N-(2-(2-(2-((2S,3S)-1-methyl-5-oxo-2-(pyridin-3-yl)pyrrolidine-3-carboxamido)ethoxy)ethoxy)ethyl)nicotinamide], 5.01 nM; with `CC(C)N(CCOCCOCCC(=O)N[C@H]1CC[C@@H](C(=O)N[C@@H]2C[C@H](N(C)C(C)C)CC[C@@H]2N2CC[C@H](Nc3ncnc4ccc(C(F)(F)F)cc34)C2=O)CC1)C(=O)CCCNC(=O)[C@H]1CC(=O)N(C)[C@@H]1c1cccnc1` [Example 177, (2S,3S)-N-(4-(Isopropyl(2-(2-(3-(((1S,4s)-4-(((1R,2S,5R)-5-(isopropyl(methyl)amino)-2-((S)-2-oxo-3-((6-(trifluoromethyl)quinazolin-4-yl)amino)pyrrolidin-1-yl)cyclohexyl)carbamoyl)cyclohexyl)amino)-3-oxopropoxy)ethoxy)ethyl)amino)-4-oxobutyl)-1-methyl-5-oxo-2-(pyridin-3-yl)pyrrolidine-3-carboxamide], 0.251 nM.
The result for `CC(C)N(C)[C@@H]1CC[C@H](N2CC[C@H](Nc3ncnc4ccc(C(F)(F)F)cc34)C2=O)[C@H](NC(=O)[C@H]2CC[C@H](N3CCN(C4CC(CCNC(=O)[C@H]5CC(=O)N(C)[C@@H]5c5cccnc5)C4)CC3)CC2)C1` (stereo partly drawn) [Example 97, (2S,3S)-N-(2-(3-(4-((1R,4S)-4-(((1R,2S,5R)-5-(Isopropyl(methyl)amino)-2-((S)-2-oxo-3-((6-(trifluoromethyl)quinazolin-4-yl)amino)pyrrolidin-1-yl)cyclohexyl)carbamoyl)cyclohexyl)piperazin-1-yl)cyclobutyl)ethyl)-1-methyl-5-oxo-2-(pyridin-3-yl)pyrrolidine-3-carboxamide] reads 0.0631 nM; that for `CC(C)N(C)[C@@H]1CC[C@H](N2CC[C@H](Nc3ncnc4ccc(C(F)(F)F)cc34)C2=O)[C@H](NC(=O)c2ccc(OC3CCN(CCOCCOCCNC(=O)[C@H]4CC(=O)N(C)[C@@H]4c4cccnc4)CC3)cc2)C1` [Example 91], 0.794 nM.

For the origin of these results see patent publication US12521393B2, “Cytotoxicity targeting chimeras for CCR2-expressing cells” (GLAXOSMITHKLINE INTELLECTUAL PROPERTY DEVELOPMENT LIMITED, priority 2021, dated 2026).
